These results are taken from PMC4573928 (Cancer chemotherapy and pharmacology, 2015).

The conditions of data set [1]: cited from earlier work.
Data set [2] can be described thus: Human pilot pharmacokinetic study of IV and PO FdCyd and THU. The note with it: humans; after PO dosing; FC detected in 4 out of the 7 patients.
Data set [3] in a line: Plasma pharmacokinetics of FdCyd, metabolites and THU in cynomolgus monkeys. Particulars: for Detection of metabolites in plasma: four animals; for AUC(0-inf): AUC0-inf; for AUC(0-t): AUC0-t; for Concentrations, fold lower than those of parent FdCyd: PO FdCyd 1 h after 500 mg/kg PO THU; for Detection in plasma: PO FdCyd at 1 and 10 mg/kg 1 h after PO THU.
The subject of another data set is cynomolgus monkeys. The note with it: THU (500 mg/kg) and FdCyd (0.1, 1.0 or 10.0 mg/kg) PO QDx3 every week, 3 or 4 repeat 1 week cycles.
The mark [4] stands for this setting: monkeys, FdCyd 0.1 mg/kg PO 1 h after 500 mg/kg THU PO.
[5] abbreviates: both, cynomolgus monkey, plasma, iv, analyte FdCyd, FdCyd 8 mg/kg 3 h IV infusion with THU 30 mg/kg IV, N=2, mean (±SD).
[6] abbreviates: both, cynomolgus monkey, plasma, po, 10 mg/kg, analyte FdCyd, FdCyd 10 mg/kg PO 1 h after THU 150 mg/kg PO, N=4, mean (±SD).
Setting [7] is: both, cynomolgus monkey, plasma, po, 10 mg/kg, analyte FdCyd, FdCyd 10 mg/kg PO 1 h after THU 500 mg/kg PO, N=4, mean (±SD).

“And” between values parts separate entries of the source, which are not always exact repeats. Equal values may be shown once. “Also recorded” adds a separate entry of the source.

`Nc1ncn([C@@H]2O[C@H](CO)[C@@H](O)[C@H]2O)c(=O)n1` [5-aza-cytidine]: in data set [1], the Chemical stability result is reported as “unstable”.
As for `Nc1ncn([C@H]2C[C@H](O)[C@@H](CO)O2)c(=O)n1` [decitabine], the Chemical stability entry in data set [1] is listed as “unstable”.
In the case of `Nc1nc(=O)[nH]cc1F` [FC, 5-fluorocytosine], the “Overall maximum plasma concentration of FC observed” value in data set [2] came out at 36.9 ng/mL. For the same compound, the FC in plasma result in data set [3] (monkeys, 10 mg/kg FdCyd PO after 150 mg/kg THU PO) was “no FC was detected”; in data set [3] (monkeys, 10 mg/kg FdCyd PO after 150 mg/kg THU PO, listed as 5-FC), “not after 150 mg/kg THU”; in data set [3] (monkeys, 10 mg/kg FdCyd PO with 500 mg/kg THU PO), “Low levels of FC were also detected”; in data set [3] (monkeys, 10 mg/kg FdCyd PO with 500 mg/kg THU PO, listed as 5-FC), “observed”. The “Detection of metabolites in plasma” value in data set [3] (setting [4]) is listed as “No FU or FC was detected”.
One may read the AUC(0-inf) as the area under the concentration-time curve extrapolated to infinity. As usually defined, the AUC(0-t) is exposure summed from dosing to a finite time, without extrapolation to infinity. As usually defined, the Cmax is the peak of the concentration-time curve. What is called Tmax is the time from dosing to the highest level. Broadly, the half-life is the time needed for the level to fall by half in the phase considered. Usually CL/F stands for the apparent clearance, not corrected for the fraction that reaches the circulation. As usually defined, the bioavailability is dose-corrected exposure relative to a reference, in per cent. As a reminder, the clearance is the rate of elimination divided by the concentration. As for `Nc1nc(=O)n([C@H]2C[C@H](O)[C@@H](CO)O2)cc1F` [FdCyd, 5-fluoro-2’-deoxycytidine], the AUC(0-inf) was 17800 ng·h/mL in data set [3] (setting [5]), 1930 ng·h/mL in data set [3] (setting [6]) and 5400 ng·h/mL in data set [3] (setting [7]). For the same compound, the figures for the AUC(0-t) in data set [3] (setting [5]), in data set [3] (setting [6]) and in data set [3] (setting [7]) were 17800 ng·h/mL, 1870 ng·h/mL and 5280 ng·h/mL, respectively. Besides, the results for the peak concentration (Cmax) in data set [3] (setting [5]), in data set [3] (setting [6]) and in data set [3] (setting [7]) were 5690 ng/mL, 1180 ng/mL and 2030 ng/mL, respectively. In addition, the Tmax in data set [3] (both, cynomolgus monkey, plasma, iv, Tmax, analyte FdCyd, FdCyd 8 mg/kg 3 h IV infusion with THU 30 mg/kg IV, N=2, mean (±SD)) is 1.75 h; in data set [3] (both, cynomolgus monkey, plasma, po, 0.1 mg/kg, Tmax for FdCyd (mean), monkeys, FdCyd 0.1 mg/kg PO 1 h after 500 mg/kg THU PO) it was 0.25 h; in data set [3] (both, cynomolgus monkey, plasma, po, 1 mg/kg, Tmax for FdCyd (mean), monkeys, FdCyd 1 mg/kg PO 1 h after 500 mg/kg THU PO) it was 0.5 h; in data set [3] (both, cynomolgus monkey, plasma, po, 10 mg/kg, Tmax for FdCyd (mean), monkeys, FdCyd 10 mg/kg PO 1 h after 500 mg/kg THU PO), 1.38 h; in data set [3] (both, cynomolgus monkey, plasma, po, 10 mg/kg, Tmax, analyte FdCyd, FdCyd 10 mg/kg PO 1 h after THU 150 mg/kg PO, N=4, mean (±SD)), 1.25 h; in data set [3] (both, cynomolgus monkey, plasma, po, 10 mg/kg, Tmax, analyte FdCyd, FdCyd 10 mg/kg PO 1 h after THU 500 mg/kg PO, N=4, mean (±SD)), 1.38 h. Also, the half-life in data set [3] (both, cynomolgus monkey, plasma, iv, T½, analyte FdCyd, FdCyd 8 mg/kg 3 h IV infusion with THU 30 mg/kg IV, N=2, mean (±SD)) is 0.87 h; in data set [3] (both, cynomolgus monkey, plasma, po, 10 mg/kg, T½, analyte FdCyd, FdCyd 10 mg/kg PO 1 h after THU 150 mg/kg PO, N=4, mean (±SD)), 1.23 h; in data set [3] (both, cynomolgus monkey, plasma, po, 10 mg/kg, T½, analyte FdCyd, FdCyd 10 mg/kg PO 1 h after THU 500 mg/kg PO, N=4, mean (±SD)), 0.63 h; in data set [3] (both, cynomolgus monkey, plasma, po, Plasma terminal half-life of FdCyd, monkeys, range over groups receiving 0.1, 1.0, and 10 mg/kg PO FdCyd 1 h after 500 mg/kg PO THU), 0.4 to 2.7 h; in data set [3] (both, cynomolgus, cynomolgus monkey, plasma, iv, FdCyd half-life, monkeys, after IV FdCyd and THU administration, range), 0.367 to 0.933 h. Moreover, the figures for the apparent clearance CL/F in data set [3] (setting [6]) and in data set [3] (setting [7]) were 126 mL/min/kg and 53 mL/min/kg, respectively. Besides, the bioavailability was 8.9% in data set [3] (both, cynomolgus monkey, plasma, po, 10 mg/kg, F (PO bioavailability), analyte FdCyd, FdCyd 10 mg/kg PO 1 h after THU 150 mg/kg PO, relative to 4, 8, and 16 mg/kg FdCyd IV with 30 mg/kg THU); 25% in data set [3] (both, cynomolgus monkey, plasma, po, 10 mg/kg, F (PO bioavailability), analyte FdCyd, FdCyd 10 mg/kg PO 1 h after THU 500 mg/kg PO, relative to 4, 8, and 16 mg/kg FdCyd IV with 30 mg/kg THU); 9 to 25% in data set [3] (both, cynomolgus, cynomolgus monkey, plasma, po, FdCyd PO bioavailability after THU, monkeys, range, increased with increasing THU dose). For the same compound, in data set [3] (both, cynomolgus, cynomolgus monkey, plasma, iv), the clearance was roughly 15 mL/min/kg. Besides, in data set [3] (monkeys, 10 mg/kg PO FdCyd without THU, 10 mg/kg), the “Plasma concentrations of FdCyd or downstream metabolites” value is “not detectable; also recorded: undetectable”. In addition, the “Detectable plasma concentrations of FdCyd (range per animal)” value in data set [3] (monkeys, FdCyd 0.1 mg/kg PO 1 h after 500 mg/kg THU PO, two of four animals) is 22.6 to 117.2 ng/mL and 34.1 to 152.2 ng/mL. Moreover, the “Mortality and dose-limiting toxicity” value in the data set with cynomolgus monkeys was “did not result in any mortality or any signs of dose-limiting toxicity”.
In the case of `O=c1[nH]c(=O)n([C@H]2C[C@H](O)[C@@H](CO)O2)cc1F` [FdUrd, 5-fluoro-2’-deoxyuridine], in data set [3] (setting [4]), the “Detection of metabolites in plasma” value is given as “three had detectable plasma concentrations of FdUrd out to 60 min”. Moreover, in data set [3] (monkeys), the “Concentrations, fold lower than those of parent FdCyd” value is reported as “approximately 10 fold” and the Detection in plasma entry is reported as “detectable plasma concentrations”.
As to `O=c1[nH]cc(F)c(=O)[nH]1` [FU, 5-fluorouracil], in data set [3] (setting [4]), the “Detection of metabolites in plasma” value is “No FU or FC was detected”. Further, in data set [3] (monkeys), the “Concentrations, fold lower than those of parent FdCyd” value is recorded as “approximately 10 fold” and the Detection in plasma entry is “detectable plasma concentrations”.
As to `O=c1[nH]c(=O)n([C@@H]2O[C@H](CO)[C@@H](O)[C@H]2O)cc1F` [FUrd, 5-fluorouridine], the “FUrd peaks in plasma samples” value in data set [3] (any of the samples, detectable down to approximately 30 ng/mL) was “no FUrd peaks were detected”.
